According to US6451972B1, “Peptido-mimetic compounds containing RGD sequence useful as integrin inhibitors” (Sigma-Tau Industrie Farmaceutiche Riunite S.p.A., priority 1998, dated 2002):

Assays:
[1] = tested on: bovine microvascular endothelial cells (BMEC) adhesion to Fibronectin; test: Adhesion inhibition of BMEC to fibronectin; format: cell-based
Protocol: (§1) Bovine microvascular endothelial cells (BMEC) were maintained in DMEM supplemented with 20% foetal calf serum, 50 units/ml heparin, 50 μg/ml bovine brain extract, 100 units/ml gentamycin.
(§2) BMEC were cultured on 1% gelatine-coated culture flasks and employed in experiments between passage 6-12.
(§3) Ninety-six-well plates (Falcon) were coated with either fibronectin or vitronectin (both at […] in phosphate buffered saline) overnight at 4° C. Cells were detached using EDTA (1 mM)/trypsine (0.25%) and resuspended in own medium described above. Approximately 40,000 cells/[…] were applied for each well and allowed to adhere for 60 min at 37° C. in presence of different amounts of RGD peptides. For all experiments the non-adherent cells were removed with PBS and the remaining cells were fixed with 4% paraformaldehyde for 10 min.
(§4) Cells were stained with 1% toluidine blue for 10 min and rinsed with water.
(§5) Stained cells were solubilized with 1% SDS and quantified on a microtiter plate reader at 600 nm.
(§6) Experiments described were performed in quadruplicate and repeated a minimum of three times. […]
(§7) The percentages of adhesion inhibition refer to 100 μM concentration of each peptide of and it's calculated by the following formula (control-sample/control×100) where control was RGD untreated sample. […] The t-test has been calculated, using the Mann Witney non parametric test, by the instat program. […]

[2] = tested on: human prostate carcinoma cells (PC3) adhesion to Vitronectin; test: Adhesion assay on vitronectin, PC3 cells; format: cell-based
Protocol: Human prostate carcinoma cells (PC3) were purchased from American Type Collection Culture (ATCC) and maintained in RPMI supplemented with 10% foetal calf serum, 10 mM L-glutamine, 1% sodium piruvate and 100 units/ml gentamicin.
as §3, §4, §5, §6
(§8) The percentages of adhesion inhibition refer to 1.5 μM concentration of each peptide and were calculated by the following formula (control-sample/control×100) where control was RGD untreated sample.

[3] = tested on: murine lung carcinoma cells (M109) adhesion to Vitronectin; test: Adhesion assay on vitronectin, M109 cells; format: cell-based
Protocol: Murine lung carcinoma cells (M109) were purchased from American Type Collection Culture (ATCC) and maintained in RPMI supplemented with 10% foetal calf serum, 10 mM L-glutamine and 100 units/ ml gentamicin.
as §3, §4, §5, §6, §8
The t-test has been calculated using the Mann Witney non parametric test, by the instat program. […]

[4] = tested on: HMEC cells adhesion to Vitronectin; test: Adhesion assay on vitronectin, HMEC cells; format: cell-based
Protocol: as §3, §4, §5
Experiments described were performed in quadruplicate and repeated a minimum of three times.
To asses the ability of ST1646 peptide to compete with vitronectin in adhesion assay also on other cells type, we performed this experiment using microvascular endothelial cells (HMEC), human prostate carcinoma cells (PC3) and murine lung carcinoma cells (M109). Table 6 (a, b and c) show a good activity of the ST1646 peptide in inhibiting adhesion of all cells type. […]
as §8

[5] = tested on: bovine microvascular endothelial cells (BMEC) adhesion to Vitronectin; test: Adhesion inhibition of BMEC to vitronectin; format: cell-based
Protocol: as §1, §2, §3, §4, §5, §6
as §7, with “µM” for “μM”

[6] = tested on: M109 lung carcinoma; test: Antitumor and antimetastatic activity on M109 lung carcinoma-bearing Balb/c mice; format: in vivo; details: 200 μg/mouse (10 mg/kg) i.p. qdx9; lung metastases at day 16; untreated group 34
Protocol: Balb/c mice were injected i.m. with M109 lung carcinoma cells (3×10^5 cells/mouse) into the hind leg muscle.
Tumors were excised at day 10th after tumor implant. Mice were sacrificed at day 16th from tumor implant and lungs were removed. The number of lung metastases has been evaluated on tumor-excised mice (3 mice/group) using a dissecting microscope.
TVI % (tumor volume inhibition)=100−[(mean tumor weight of treated group/mean tumor weight of control group)×100]. Calculated on day 16th after tumor implant (just before mice sacrifice) on nonoperated mice.

## CC(C)[C@@H]1NC(=O)[C@@H](Cc2ccccc2)NC(=O)[C@H](CC(=O)O)NC(=O)CNC(=O)[C@H](CCCNC(=N)N)NC1=O [KESSLER, cyclo (Arg-Gly-Asp-D-Phe-Val)]
[1]; BMEC on fibronectin, 100 μM concentration of each peptide, mean of 4 samples
  % Inhibition: 30%
[1]; BMEC, fibronectin-coated plates, 100 to 0.6 μM tested, ± SD
  IC50: > 100 µM
[2]; 1.5 μM peptide
  % Inhibition: 69%
[2]; average of 3 experiments
  IC50: 2.5 ± 0.2 µM
[3]; 1.5 μM peptide
  % Inhibition: 70%
[3]; average of 3 experiments
  IC50: 0.46 ± 0.5 µM
[4]; 1.5 μM peptide
  % Inhibition: 39%
[4]; average of 3 experiments
  IC50: 4.23 ± 0.31 µM
[5]; BMEC on vitronectin, 100 µM concentration of each peptide, mean of 4 samples
  % Inhibition: 96%
[5]; BMEC, vitronectin-coated plates, 100 to 0.6 μM tested, ± SD
  IC50: 7.8 ± 1.2 µM
[6]
  Mean no. of metastases: 23
